Format in all cases: cell-based, mouse
The test system of data set [1] is Otulin, Dusp6 and Nf1 knockout B16F10 cells. Nature of the data set: Doxorubicin-induced cell death. The settings on record: Dusp6 or Nf1 inactivated B16F10-Cas9 cells vs control cells, 24 or 48 hours.
Procedure: The knockout cell lines (GFP+) were mixed with control cells (GFP−) at 1:1 ratio. The mixture of cells was then seeded at 200,000 cells/well in a 6-well plate. Eighteen hours after seeding, different doses of doxorubicin (Sigma-Aldrich, D1515) as indicated in FIG. 11 were added to the cell culture (triplicate wells per condition). After 24 or 48 hours, cells were harvested and stained with DAPI (5 μg/ml) for 5 minutes in PBS with 2% FBS at room temperature. The ratio of GFP+/GFP−was determined by FACS (gated on DAPI− for live cells).
Data set [2] has as its system B16F10-Cas9 cells pulsed with SIINFEKL peptide, co-cultured with OT-I T cells. Nature of the data set: Genome-scale CRISPR-Cas9 screen, selection with OT-I T cells. The conditions noted are these: Table 3; B16F10-Cas9 cells pulsed with SIINFEKL, co-cultured with OT-I T cells 1:1 for one day; negative = depleted, positive = enriched.
Data set [3] concerns B16F10-Cas9 cells co-cultured with Pmel-1 T cells. Put plainly: Genome-scale CRISPR-Cas9 screen, selection with Pmel-1 T cells. The settings on record: Table 3; B16F10-Cas9 cells pre-treated with IFNγ, co-cultured with Pmel-1 T cells 1:1 for three days; negative = depleted, positive = enriched.
In another data set the test system is B16F10-Cas9 cells. Put plainly: PD-L1 expression by FACS after IFNγ stimulation (Cas9 editing efficiency of B16F10-Cas9 clones). The settings on record: B16F10 tumor cells, IFNγ 10 ng/ml for 24 hours. The procedure:
To acquire clones with high Cas9 activity, B16F10-Cas9 cells were single-cell sorted into 96-well plates. Multiple were infected with lentivirus driving expression of a gRNA specific for Cd274 and mCherry. Ten days post-infection, each individual clone was stimulated with 10 ng/ml of IFNγ for 24 hours and the expression of PD-L1 was determined by fluorescence-activated cells sorting (FACS) using an anti-Cd274 antibody (clone 10F.9G2, BioLegend, #124311). Cas9 efficiency was determined by the percentage of PD-L1 negative cells in the transduced (mCherry+) population.
(A flow cytometer gives signals particle by particle.)

With `COc1cccc2c1C(=O)c1c(O)c3c(c(O)c1C2=O)C[C@@](O)(C(=O)CO)C[C@@H]3O[C@H]1C[C@H](N)[C@H](O)[C@H](C)O1` [doxorubicin], the “sensitivity to doxorubicin induced cell death” value in data set [1] is on record as “did not render them more sensitive”.

“TCTTAAAGCTACGGTGTAAG (chemistry not fully specified)”: the “OT1 (sgRNA Log(2) fold change, OT-I selection versus control T cells)” value in data set [2] is recorded as -2.41. In addition, the “Pmel+ (sgRNA Log(2) fold change, Pmel-1 selection versus control T cells)” value in data set [3] is given as -0.87.

On to “TCTTCAGGAGAGAATACCAT (chemistry not fully specified)”, for which the “OT1 (sgRNA Log(2) fold change, OT-I selection versus control T cells)” value in data set [2] was found to be 3.69. The “Pmel+ (sgRNA Log(2) fold change, Pmel-1 selection versus control T cells)” value in data set [3] is given as 3.86.

On to “TCTTGAAAACTATAGTACTC (chemistry not fully specified)”, for which, in data set [2], the “OT1 (sgRNA Log(2) fold change, OT-I selection versus control T cells)” value is -2.40. Besides, the “Pmel+ (sgRNA Log(2) fold change, Pmel-1 selection versus control T cells)” value in data set [3] is on record as -2.12.

Regarding “TGAAGCTAATGACCATGAGC (chemistry not fully specified)”, in data set [2], the “OT1 (sgRNA Log(2) fold change, OT-I selection versus control T cells)” value is -2.77. In data set [3], the “Pmel+ (sgRNA Log(2) fold change, Pmel-1 selection versus control T cells)” value is listed as -0.59.

For the molecule “TGAATAAATCCATCAGACAG (chemistry not fully specified)”, the “OT1 (sgRNA Log(2) fold change, OT-I selection versus control T cells)” value in data set [2] is 2.46. Further, the “Pmel+ (sgRNA Log(2) fold change, Pmel-1 selection versus control T cells)” value in data set [3] amounted to 9.92.

As for “TGAGTATACTTGAATTTGAG (chemistry not fully specified)”, the “OT1 (sgRNA Log(2) fold change, OT-I selection versus control T cells)” value in data set [2] is given as 5.51. In addition, the “Pmel+ (sgRNA Log(2) fold change, Pmel-1 selection versus control T cells)” value in data set [3] worked out at 3.55.

“TGATAATAGATAAACGACCA (chemistry not fully specified)”: the “OT1 (sgRNA Log(2) fold change, OT-I selection versus control T cells)” value in data set [2] is -3.36. The “Pmel+ (sgRNA Log(2) fold change, Pmel-1 selection versus control T cells)” value in data set [3] was 0.05.

On to “TGATGAGCAGATTCTAACTT (chemistry not fully specified)”, for which the “OT1 (sgRNA Log(2) fold change, OT-I selection versus control T cells)” value in data set [2] came to 3.81. Besides, the “Pmel+ (sgRNA Log(2) fold change, Pmel-1 selection versus control T cells)” value in data set [3] is reported as 5.03.

As to “TGATGCTGGCCTCTATACTG (chemistry not fully specified)”, the “OT1 (sgRNA Log(2) fold change, OT-I selection versus control T cells)” value in data set [2] is -3.28. The “Pmel+ (sgRNA Log(2) fold change, Pmel-1 selection versus control T cells)” value in data set [3] is -1.90.

As to “TGCACAGCATACACTAGTGA (chemistry not fully specified)”, the “OT1 (sgRNA Log(2) fold change, OT-I selection versus control T cells)” value in data set [2] was -2.96. For the same molecule, in data set [3], the “Pmel+ (sgRNA Log(2) fold change, Pmel-1 selection versus control T cells)” value was -1.65.

“TGGAACCTCCTGATCCGCTG (chemistry not fully specified)”: the “OT1 (sgRNA Log(2) fold change, OT-I selection versus control T cells)” value in data set [2] is on record as -4.60. In data set [3], the “Pmel+ (sgRNA Log(2) fold change, Pmel-1 selection versus control T cells)” value is recorded as 0.12.

As for “TGGAATTATGGTCAAAGTAG (chemistry not fully specified)”, the “OT1 (sgRNA Log(2) fold change, OT-I selection versus control T cells)” value in data set [2] is on record as -2.20. In data set [3], the “Pmel+ (sgRNA Log(2) fold change, Pmel-1 selection versus control T cells)” value was 0.96.

As to “TGGACATGAGCCATATGTTG (chemistry not fully specified)”, in data set [2], the “OT1 (sgRNA Log(2) fold change, OT-I selection versus control T cells)” value was -0.14. For the same molecule, in data set [3], the “Pmel+ (sgRNA Log(2) fold change, Pmel-1 selection versus control T cells)” value was found to be 3.35.

“TGGACCTCCGAAAAACATCT (chemistry not fully specified)”: the “OT1 (sgRNA Log(2) fold change, OT-I selection versus control T cells)” value in data set [2] is given as 3.78. For the same molecule, in data set [3], the “Pmel+ (sgRNA Log(2) fold change, Pmel-1 selection versus control T cells)” value stood at 5.37.

For “TGGTCTAGTTACCATGCAAG (chemistry not fully specified)”, the “OT1 (sgRNA Log(2) fold change, OT-I selection versus control T cells)” value in data set [2] is listed as -3.50. In addition, the “Pmel+ (sgRNA Log(2) fold change, Pmel-1 selection versus control T cells)” value in data set [3] was -0.83.

As to “TGTAATGTAGGTCTCCCAGG (chemistry not fully specified)”, the “OT1 (sgRNA Log(2) fold change, OT-I selection versus control T cells)” value in data set [2] is -3.77. Besides, the “Pmel+ (sgRNA Log(2) fold change, Pmel-1 selection versus control T cells)” value in data set [3] is given as -1.35.

For “TGTGAATGCTATGACGAGCT (chemistry not fully specified)”, in data set [2], the “OT1 (sgRNA Log(2) fold change, OT-I selection versus control T cells)” value was -2.59. Also, in data set [3], the “Pmel+ (sgRNA Log(2) fold change, Pmel-1 selection versus control T cells)” value is listed as 0.02.

For the molecule “TGTGATGTTAGATAAACAGA (chemistry not fully specified)”, the “OT1 (sgRNA Log(2) fold change, OT-I selection versus control T cells)” value in data set [2] turned out to be 1.50. Moreover, the “Pmel+ (sgRNA Log(2) fold change, Pmel-1 selection versus control T cells)” value in data set [3] worked out at 7.91.

Take “TGTTCTAGGAAACTACATGG (chemistry not fully specified)”: the “OT1 (sgRNA Log(2) fold change, OT-I selection versus control T cells)” value in data set [2] is recorded as -2.76. Also, the “Pmel+ (sgRNA Log(2) fold change, Pmel-1 selection versus control T cells)” value in data set [3] was determined as 1.10.

With “TGTTTGCAGTTAGCAAAACG (chemistry not fully specified)”, the “OT1 (sgRNA Log(2) fold change, OT-I selection versus control T cells)” value in data set [2] is given as -2.49. The “Pmel+ (sgRNA Log(2) fold change, Pmel-1 selection versus control T cells)” value in data set [3] is recorded as 0.00.

For the molecule “TTAATGACGAGCTCGTGGAG (chemistry not fully specified)”, the “OT1 (sgRNA Log(2) fold change, OT-I selection versus control T cells)” value in data set [2] is recorded as 2.25. Also, the “Pmel+ (sgRNA Log(2) fold change, Pmel-1 selection versus control T cells)” value in data set [3] was found to be 8.60.

On to “TTACACGACCCGAATAGCGA (chemistry not fully specified)”, for which the “OT1 (sgRNA Log(2) fold change, OT-I selection versus control T cells)” value in data set [2] is -2.14. In data set [3], the “Pmel+ (sgRNA Log(2) fold change, Pmel-1 selection versus control T cells)” value worked out at 3.22.

Turning to “TTACCCCCTACTACACTGGA (chemistry not fully specified)”, the “OT1 (sgRNA Log(2) fold change, OT-I selection versus control T cells)” value in data set [2] is on record as -2.56. Further, the “Pmel+ (sgRNA Log(2) fold change, Pmel-1 selection versus control T cells)” value in data set [3] was -2.24.

In the case of “TTACTGAGGCTCGATTGGGA (chemistry not fully specified)”, in data set [2], the “OT1 (sgRNA Log(2) fold change, OT-I selection versus control T cells)” value is reported as -3.59. Moreover, the “Pmel+ (sgRNA Log(2) fold change, Pmel-1 selection versus control T cells)” value in data set [3] amounted to 0.41.

On to “TTAGTTCTGGCAAAGCGCCG (chemistry not fully specified)”, for which, in data set [2], the “OT1 (sgRNA Log(2) fold change, OT-I selection versus control T cells)” value was -2.23. In data set [3], the “Pmel+ (sgRNA Log(2) fold change, Pmel-1 selection versus control T cells)” value is recorded as -2.54.

Regarding “TTATTGAGTCAAGAAAAGGT (chemistry not fully specified)”, the “OT1 (sgRNA Log(2) fold change, OT-I selection versus control T cells)” value in data set [2] is on record as -3.67. For the same molecule, the “Pmel+ (sgRNA Log(2) fold change, Pmel-1 selection versus control T cells)” value in data set [3] is -1.87.

For the molecule “TTCAAAGCAAGGCTCTACTG (chemistry not fully specified)”, the “OT1 (sgRNA Log(2) fold change, OT-I selection versus control T cells)” value in data set [2] was -2.28. For the same molecule, the “Pmel+ (sgRNA Log(2) fold change, Pmel-1 selection versus control T cells)” value in data set [3] was -0.93.

With “TTCAGATTCAGACATCAGAT (chemistry not fully specified)”, in data set [2], the “OT1 (sgRNA Log(2) fold change, OT-I selection versus control T cells)” value is recorded as -2.07. In addition, in data set [3], the “Pmel+ (sgRNA Log(2) fold change, Pmel-1 selection versus control T cells)” value is 0.00.

As for “TTCAGGGTGAAATACGAGGA (chemistry not fully specified)”, the “OT1 (sgRNA Log(2) fold change, OT-I selection versus control T cells)” value in data set [2] came to 3.43. Further, the “Pmel+ (sgRNA Log(2) fold change, Pmel-1 selection versus control T cells)” value in data set [3] amounted to 5.32.

As for “TTCGGACAAATACGACGACG (chemistry not fully specified)”, the “OT1 (sgRNA Log(2) fold change, OT-I selection versus control T cells)” value in data set [2] is reported as -2.32. In data set [3], the “Pmel+ (sgRNA Log(2) fold change, Pmel-1 selection versus control T cells)” value came to 0.00.

Regarding “TTGTCCGCGTTACTTCCCTG (chemistry not fully specified)”, the “OT1 (sgRNA Log(2) fold change, OT-I selection versus control T cells)” value in data set [2] is listed as -2.50. Moreover, the “Pmel+ (sgRNA Log(2) fold change, Pmel-1 selection versus control T cells)” value in data set [3] is reported as 0.07.

As to “TTGTGAGGCAAACTGAACGA (chemistry not fully specified)”, the “OT1 (sgRNA Log(2) fold change, OT-I selection versus control T cells)” value in data set [2] is -2.11. Besides, the “Pmel+ (sgRNA Log(2) fold change, Pmel-1 selection versus control T cells)” value in data set [3] is listed as -0.86.

Turning to “TTGTGCCTAAACAAAAAACA (chemistry not fully specified)”, in data set [2], the “OT1 (sgRNA Log(2) fold change, OT-I selection versus control T cells)” value is -2.52. Further, in data set [3], the “Pmel+ (sgRNA Log(2) fold change, Pmel-1 selection versus control T cells)” value is 0.85.

As to “TTTACAATCCTCCAAAGTCG (chemistry not fully specified)”, the “OT1 (sgRNA Log(2) fold change, OT-I selection versus control T cells)” value in data set [2] is -3.13. Besides, the “Pmel+ (sgRNA Log(2) fold change, Pmel-1 selection versus control T cells)” value in data set [3] was -0.68.

B1: IFNγ: cytokine used to stimulate B16F10 cells (protein, UniProt P01580 23-155, looked up)
Interferon gamma: HGTVIESLESLNNYFNSSGIDVEEKSLFLDIWRNWQKDGDMKILQSQIISFYLRLFEVLKDNQAISNNISVIESHLITTFFSNSKAKKDAFMSIAKFEVNNPQVQRQAFNELIRVVHQLLPESSLRKRKRSRC
Consider B1, for which the PD-L1 expression entry with B16F10-Cas9 cells is reported as “strong upregulation”.

(Values after patent US11820822B2, “Methods for sensitizing cancer cells to T cell-mediated killing by modulating molecular pathways” (DANA-FARBER CANCER INSTITUTE, INC., priority 2017, dated 2023).)
